Laboratory results from the NIST ThermoML archive (doi:10.1021/acs.jced.8b00008).
Numbers after ± are expanded uncertainties.

Details: for viscosity / speed of sound / mass density: 102 kPa, Liquid; for viscosity: Concentric cylinders viscometry; for speed of sound: Single path-length method; for mass density: Vibrating tube method; for surface tension liquid-gas: Pendant drop shape

Compound | viscosity (293.15 K) | speed of sound (293.15 K) | mass density (293.15 K) | viscosity (298.15 K) | speed of sound (298.15 K) | mass density (298.15 K) | viscosity (303.15 K) | speed of sound (303.15 K) | mass density (303.15 K) | viscosity (313.15 K) | speed of sound (313.15 K) | mass density (313.15 K) | viscosity (323.15 K) | speed of sound (323.15 K) | mass density (323.15 K) | viscosity (333.15 K) | speed of sound (333.15 K) | mass density (333.15 K) | other results
CCCCCCCCCCCCCCCC [hexadecane] | 3.47 ± 0.02 mPa·s | 1357.4 ± 0.6 m/s | 773.37 ± 0.32 kg/m3 | 3.06 ± 0.02 mPa·s | 1338.6 ± 0.6 m/s | 769.89 ± 0.32 kg/m3 | 2.76 ± 0.02 mPa·s | 1319.7 ± 0.6 m/s | 766.43 ± 0.32 kg/m3 | 2.23 ± 0.02 mPa·s | 1282.9 ± 0.6 m/s | 759.51 ± 0.32 kg/m3 | 1.86 ± 0.01 mPa·s | 1247.1 ± 0.6 m/s | 752.6 ± 0.32 kg/m3 | 1.56 ± 0.01 mPa·s | 1212.2 ± 0.6 m/s | 745.69 ± 0.32 kg/m3 | surface tension liquid-gas (296.1 K): 26.9 ± 0.7 mN/m
CC1CCCCC1 [methylcyclohexane] | 0.74 ± 0.011 mPa·s | 1236.5 ± 0.6 m/s | 769.3 ± 0.2 kg/m3 | 0.685 ± 0.011 mPa·s | 1214.5 ± 0.6 m/s | 764.99 ± 0.21 kg/m3 | 0.633 ± 0.011 mPa·s | 1192.3 ± 0.6 m/s | 760.64 ± 0.21 kg/m3 | 0.572 ± 0.011 mPa·s | 1149.2 ± 0.6 m/s | 751.92 ± 0.21 kg/m3 | 0.489 ± 0.011 mPa·s | 1106.9 ± 0.6 m/s | 743.13 ± 0.21 kg/m3 | 0.44 ± 0.011 mPa·s | 1065.7 ± 0.6 m/s | 734.25 ± 0.21 kg/m3 | surface tension liquid-gas (291.1 K): 23.7 ± 0.5 mN/m
CCC1CCCCC1 [ethylcyclohexane] | 0.858 ± 0.012 mPa·s | 1292.9 ± 0.6 m/s | 787.98 ± 0.2 kg/m3 | – | – | – | 0.725 ± 0.011 mPa·s | 1249.9 ± 0.6 m/s | 779.91 ± 0.2 kg/m3 | 0.649 ± 0.011 mPa·s | 1208 ± 0.6 m/s | 771.79 ± 0.2 kg/m3 | 0.572 ± 0.011 mPa·s | 1166.9 ± 0.6 m/s | 763.6 ± 0.21 kg/m3 | 0.504 ± 0.011 mPa·s | 1126.9 ± 0.6 m/s | 755.36 ± 0.21 kg/m3 | surface tension liquid-gas (295.6 K): 25.3 ± 0.5 mN/m
CCCCCCCCCCCC [dodecane] | 1.49 ± 0.01 mPa·s | 1297.7 ± 0.7 m/s | 748.73 ± 0.7 kg/m3 | 1.36 ± 0.01 mPa·s | – | 745.11 ± 0.7 kg/m3 | 1.26 ± 0.01 mPa·s | 1259 ± 0.7 m/s | 741.77 ± 0.7 kg/m3 | 1.06 ± 0.01 mPa·s | 1221.1 ± 0.7 m/s | 734.87 ± 0.7 kg/m3 | 0.925 ± 0.012 mPa·s | 1183.9 ± 0.7 m/s | 726.88 ± 0.7 kg/m3 | 0.795 ± 0.012 mPa·s | 1147.6 ± 0.7 m/s | 719.53 ± 0.7 kg/m3 | surface tension liquid-gas (294.6 K): 25 ± 0.5 mN/m
